In PMC6359455, “Partial Solvation Parameters of Drugs as a New Thermodynamic Tool for Pharmaceutics” (Pharmaceutics, 2019):

Assays:
[1] = set-up: method as in doi:10.1021/acs.iecr.7b02286; Vx (McGowan volume LSER descriptor): unit not given here; details: common solvents; cited from earlier work
[2] = LSER descriptors by PSP approach from experimental inverse gas chromatography (IGC) data; assay type: physicochemical; details: initial or tentative estimates; for A (PSP): LSER acidity descriptor; for B (PSP): LSER basicity descriptor; for S (PSP): LSER polarity descriptor
Procedure: (§1) Inverse gas chromatography (IGC) was used to analyze solid samples packed into a chromatographic column as stationary phase. The equipment was a surface energy analyzer (iGC-SEA) from Surface Measurement Systems Ltd. (London, UK) and about 200 mg of each drug was inserted into silanized glass columns (3 mm inner diameter) by employing a standardized packing method with silanized glass wool that was used at both ends of the column as fixation. Prior to each measurement, the samples were conditioned for 1 h at 30 °C with dry helium with 0% relative humidity at a flow rate of 15 standard cubic centimeters per minute (sccm). Dead volume of the system was determined by injecting the inert probe methane prior and after each measurement. This stationary phase was flushed with an inert carrier gas—helium in the present study. Measuring conditions were the same as applied for sample conditioning, except for a flow rate of 10 sccm that was used. For all experiments, a relative surface coverage of 5% was selected.
The extent of interactions between the solid phase of interest and the probe gas is obtained by the net retention volume VN:(31) VN=j/mF(tR−t0)T/273.15, where T is the column temperature, F is the carrier gas flow rate at 1 atm and 273.15 K, m is the sample mass, tR is the retention time of the absorbed probe gas and t0 is the mobile phase hold up time, and finally, j represents the James–Martin correction (that adjusts retention time for the pressure drop effect in the column bed). The calculated retention volume VN is then used to estimate the mass activity coefficient, Ω at infinite dilution:(32) ln(Ω)=ln(273.15R/p0M1VN)−p0(B11−V1)/RT, where po is the saturation pressure and M is the molecular mass, while B11 is the second virial coefficient and V1 holds for molar volume of the probe gas. Conversion of the mass activity coefficient Ω to mole fraction activity coefficient γ (at infinite dilution) is done via the following equation:(33) lnγ1res,∞=ln(Ω1M1/M2)−(lnr1/r2+1−r1/r2)=r1χ12. and provided the basis for further thermodynamic analysis, as described in the Results section.
The PSP approach was used to characterize the studied drugs, that is, to determine their LSER descriptors from the experimental IGC data. The McGowan volume, Vx, is an atom-specific quantity and, thus, it is obtained either from the ACD software or from the freely accessible database via their SMILES form. […].
A and B descriptors were then obtained from IGC data with hydrogen-bonding probes (acidic, like chloroform, basic, like acetone, and homosolvated, like ethanol) correlated with Equation (34).

[3] = Surface energy components by IGC with the PSP/LSER method; assay type: physicochemical; details: for γd (dispersion component of surface energy): IGC, Dorris–Gray method, amorphous drug, 30 °C; for γhb (hydrogen-bonding surface energy component) / γa (acidic surface energy component) / γb (basic surface energy component) / γtot (total surface energy): PSP/LSER method; for γa (acidic surface energy component) / γb (basic surface energy component): Equation (27), unit assumed; for γtot (total surface energy): Equation (36)
Procedure: as §1
The PSP framework can also be used for the estimation of the surface energy components of the studied drugs. However, there are practically no data on the total surface energies of drugs available in the literature. Instead, the dispersion components, γd, were determined by the Dorris–Gray method. This dispersion component is practically equivalent to our nonhydrogen-bonding component, γVES. Thus, we may use Equation (29) in the equivalent form of Equation (36) and obtain the total surface energy of the drugs, γtot: (36) γtot=γd3.1Vx+E+S+2AB/3.1Vx+E+S.
In a similar manner, the acidity and basicity components of the surface energy are obtained from Equation (27).

[4] = Differential scanning calorimetry (enthalpy of fusion); assay type: physicochemical; details: DSC, 10 °C/min, triplicate
Procedure: Differential scanning calorimetry (DSC) thermograms were obtained using a DSC 1 instrument from Mettler-Toledo AG (Greifensee, Switzerland). The instrument was calibrated for temperature and enthalpy using indium. Nitrogen was used as protective gas (150 mL/min). Samples (2–3 mg) were placed in 40 μL aluminum pans with pierced aluminum lids (Mettler-Toledo AG, Greifensee, Switzerland). The melting onset temperature (Tm) and the enthalpy of fusion (ΔHf) were determined by heating the samples at 10 °C/min from 25 °C to a maximum temperature of 300 °C. All DSC measurements were carried out in triplicate.

[5] = Cohesive energy (solubility-parameter) components by the PSP/LSER method

Compound	B (basicity LSER descriptor) [1]	E (excess refractivity LSER descriptor) [1]	S (polarity LSER descriptor) [1]	Vx (McGowan volume LSER descriptor) [1]	A (acidity LSER descriptor) [1]	further results
C1CCOC1 [Tetrahydrofuran]	0.479	0.291	0.524	0.622		
CCC(C)=O [Methyl ethyl ketone]	0.510	0.170	0.697	0.688		
CCCCCC [n-Hexane]				0.954		
CCC(C)(C)C(=O)O[C@H]1C[C@@H](C)C=C2C=C[C@H](C)[C@H](CC[C@@H]3C[C@@H](O)CC(=O)O3)[C@H]21 [Simvastatin, simvastatin]						A (PSP) [2]: 0.20; B (PSP) [2]: 0.7 ± 0.2; S (PSP) [2]: 4.28; γd (dispersion component of surface energy) [3]: 57.36 mJ/m^2; γhb (hydrogen-bonding surface energy component) [3]: 2.64 mJ/m^2; γa (acidic surface energy component) [3]: 0.71 mJ/m^2; γb (basic surface energy component) [3]: 2.47 mJ/m^2; γtot (total surface energy) [3]: 60.00 mJ/m^2; ΔH^m (heat of fusion) [4]: 6.969 ± 0.198 kcal/mol
CO [Methanol]	0.470	0.280	0.439	0.308	0.430	
ClC(Cl)Cl [Chloroform]		0.430	0.490	0.617	0.150	
O [Water]	0.350	0.000	0.450	0.167	0.820	
CCOC(=O)N1CCC(=C2c3ccc(Cl)cc3CCc3cccnc32)CC1 [Loratadine, loratadine]						A (PSP) [2]: 0.00; B (PSP) [2]: 0.6 ± 0.2; S (PSP) [2]: 2.96; γd (dispersion component of surface energy) [3]: 41.6 mJ/m^2; γhb (hydrogen-bonding surface energy component) [3]: 0.00 mJ/m^2; γtot (total surface energy) [3]: 41.60 mJ/m^2; σd (dispersion PSP) [5]: 19.11 MPa^0.5; σp (polarity PSP) [5]: 9.87 MPa^0.5; ΔH^m (heat of fusion) [4]: 6.685 ± 0.043 kcal/mol
CCC(C)O (stereo not shown) [2-Butanol]	0.560	0.220	0.360	0.731	0.330	
CCCCCCC [n-Heptane]				1.095		
CCc1ccccc1 [Ethylbenzene]			0.510			
CCCCCCCC [n-Octane]				1.236		
CC(C)O [Isopropanol]	0.560	0.210	0.366	0.590	0.330	
OCCO [Ethylene glycol]	0.780	0.400	0.900	0.508	0.580	
CCO [Ethanol]	0.480	0.250	0.419	0.449	0.370	
CCOC(C)=O [Ethyl acetate]	0.450	0.110	0.618	0.747		
CCCCO [1-Butanol]		0.220	0.420	0.731		

Compound	B (basicity LSER descriptor) [1]	E (excess refractivity LSER descriptor) [1]	S (polarity LSER descriptor) [1]	Vx (McGowan volume LSER descriptor) [1]	A (acidity LSER descriptor) [1]	further results
Oc1ccccc1 [Phenol]	0.300	0.808	0.890	0.775	0.600	
CCCCCCCCC [n-Nonane]				1.377		
CCCCOC(C)=O [n-Butyl acetate]	0.449	0.071	0.597	1.028		
CCCCCCCCO [1-Octanol]	0.480	0.200	0.421	1.295	0.370	
OC1CCCCC1 [Cyclohexanol]	0.570	0.461	0.557	0.904	0.320	
ClCCl [Dichloromethane]		0.390	0.574	0.494	0.100	
CC(C)=O [Acetone]	0.493	0.180	0.703	0.547		
CC#N [Acetonitrile]	0.330	0.241	0.900	0.404	0.040	
CCCCCCCCCC [n-Decane]				1.518		
CC(=O)N1CCN(c2ccc(OCC3COC(Cn4ccnc4)(c4ccc(Cl)cc4Cl)O3)cc2)CC1 (stereo not shown) [Ketoconazole, ketoconazole]						A (PSP) [2]: 0.00; B (PSP) [2]: 0.7 ± 0.3; S (PSP) [2]: 2.75; γd (dispersion component of surface energy) [3]: 45.86 mJ/m^2; γhb (hydrogen-bonding surface energy component) [3]: 0.00 mJ/m^2; γa (acidic surface energy component) [3]: 0 mJ/m^2; γb (basic surface energy component) [3]: 1.84 mJ/m^2; γtot (total surface energy) [3]: 45.86 mJ/m^2; σGa (acidity PSP) [5]: 0.00 MPa^0.5; σGb (basicity PSP) [5]: 4.26 MPa^0.5; σd (dispersion PSP) [5]: 19.52 MPa^0.5; σhb (hydrogen-bonding PSP) [5]: 0.00 MPa^0.5; σp (polarity PSP) [5]: 8.45 MPa^0.5; σtot (square root of total cohesive energy density, equivalent to δtot) [5]: 21.27 MPa^0.5; ΔH^m (heat of fusion) [4]: 12.71 ± 0.141 kcal/mol
Cc1ccccc1 [Toluene]		0.600	0.520	0.857		
CCCO [1-Propanol]		0.240	0.420	0.590		
c1ccccc1 [Benzene]		0.610	0.520	0.716		
ClC(Cl)(Cl)Cl [Carbon tetrachloride]		0.460	0.380	0.739		
C1CCCCC1 [Cyclohexane]		0.310	0.010	0.845		
C1COCCO1 [1,4-Dioxane]	0.635	0.330	0.744	0.681		
